In ChEMBL document CHEMBL1130757, “Synthetic arabinofuranosyl oligosaccharides as mycobacterial arabinosyltransferase substrates” (1998):

Tests used:
Assay type in all cases: functional
[1] = tested on: Mycolicibacterium smegmatis; assay: Tested for recognition of mycobacterial arabinosyl transferase incubated with 14C1 labeled decaprenol arabinofuranosyl phosphate in the presence of membrane extracts from Mycobacterium smegmatis in experiment 3 (%incorporation = 12.4)
[2] = tested on: Mycolicibacterium smegmatis; assay: Tested for recognition of mycobacterial arabinosyl transferase incubated with 14C1 labeled decaprenol arabinofuranosyl phosphate in the presence of membrane extracts from Mycobacterium smegmatis in experiment 2 (%incorporation = 12.9)
[3] = tested on: Mycolicibacterium smegmatis; assay: Tested for recognition of mycobacterial arabinosyl transferase incubated with 14C1 labeled decaprenol arabinofuranosyl phosphate in the presence of membrane extracts from Mycobacterium smegmatis in experiment 1 (%incorporation = 12.9)
[4] = tested on: Mycolicibacterium smegmatis; assay: Average value of incorporation for recognition of mycobacterial arabinosyl transferase in experiments 1, 2 and 3 (%incorporation = 12.7)
[5] = tested on: Mycolicibacterium smegmatis; assay: Tested for recognition of mycobacterial arabinosyl transferase incubated with 14C1 labeled decaprenol arabinofuranosyl phosphate in the presence of membrane extracts from Mycobacterium smegmatis in experiment 1 (%incorporation = 16.4)
[6] = tested on: Mycolicibacterium smegmatis; assay: Average value of incorporation for recognition of mycobacterial arabinosyl transferase in experiments 1 and 2 (%incorporation = 16.1)
[7] = tested on: Mycolicibacterium smegmatis; assay: Tested for recognition of mycobacterial arabinosyl transferase incubated with 14C1 labeled decaprenol arabinofuranosyl phosphate in the presence of membrane extracts from Mycobacterium smegmatis in experiment 2 (%incorporation = 15.2)
[8] = tested on: Mycolicibacterium smegmatis; assay: Average value of incorporation for recognition of mycobacterial arabinosyl transferase in experiments 1, 2 and 3 (%incorporation = 17.2)
[9] = tested on: Mycolicibacterium smegmatis; assay: Tested for recognition of mycobacterial arabinosyl transferase incubated with 14C1 labeled decaprenol arabinofuranosyl phosphate in the presence of membrane extracts from Mycobacterium smegmatis in experiment 2 (%incorporation = 16.1)
[10] = tested on: Mycolicibacterium smegmatis; assay: Tested for recognition of mycobacterial arabinosyl transferase incubated with 14C1 labeled decaprenol arabinofuranosyl phosphate in the presence of membrane extracts from Mycobacterium smegmatis in experiment 3 (%incorporation = 16.4)
[11] = tested on: Mycolicibacterium smegmatis; assay: Tested for recognition of mycobacterial arabinosyl transferase incubated with 14C1 labeled decaprenol arabinofuranosyl phosphate in the presence of membrane extracts from Mycobacterium smegmatis in experiment 1 (%incorporation = 19.1)
[12] = tested on: Mycolicibacterium smegmatis; assay: Average value of incorporation for recognition of mycobacterial arabinosyl transferase in experiments 1, 2 and 3 (%incorporation = 20.8)
[13] = tested on: Mycolicibacterium smegmatis; assay: Tested for recognition of mycobacterial arabinosyl transferase incubated with 14C1 labeled decaprenol arabinofuranosyl phosphate in the presence of membrane extracts from Mycobacterium smegmatis in experiment 1 (%incorporation = 21.9)
[14] = tested on: Mycolicibacterium smegmatis; assay: Tested for recognition of mycobacterial arabinosyl transferase incubated with 14C1 labeled decaprenol arabinofuranosyl phosphate in the presence of membrane extracts from Mycobacterium smegmatis in experiment 3 (%incorporation = 18.2)
[15] = tested on: Mycolicibacterium smegmatis; assay: Tested for recognition of mycobacterial arabinosyl transferase incubated with 14C1 labeled decaprenol arabinofuranosyl phosphate in the presence of membrane extracts from Mycobacterium smegmatis in experiment 2 (%incorporation = 22.5)
[16] = tested on: Mycolicibacterium smegmatis; assay: Average value of incorporation for recognition of mycobacterial arabinosyl transferase in experiments 1, 2 and 3 (%incorporation = 14)
[17] = tested on: Mycolicibacterium smegmatis; assay: Tested for recognition of mycobacterial arabinosyl transferase incubated with 14C1 labeled decaprenol arabinofuranosyl phosphate in the presence of membrane extracts from Mycobacterium smegmatis in experiment 1 (%incorporation = 13.8)
[18] = tested on: Mycolicibacterium smegmatis; assay: Tested for recognition of mycobacterial arabinosyl transferase incubated with 14C1 labeled decaprenol arabinofuranosyl phosphate in the presence of membrane extracts from Mycobacterium smegmatis in experiment 2 (%incorporation = 15.8)

`CO[C@H]1O[C@H](CO[C@H]2O[C@H](CO)[C@@H](O)[C@@H]2O)[C@@H](O)[C@@H]1O` was tested, and the Incorporation [1] was 4990 c.p.m, the Incorporation [2] was 5148 c.p.m and the Incorporation [3] was 5148 c.p.m. For the same molecule, the Average [4] was 5095 c.p.m.
Molecule `CO[C@H]1O[C@H](CO[C@H]2O[C@H](CO[C@H]3O[C@H](CO)[C@@H](O)[C@@H]3O)[C@@H](O[C@H]3O[C@H](CO)[C@@H](O)[C@@H]3O)[C@@H]2O)[C@@H](O)[C@@H]1O` has an Incorporation [5] of 6540 c.p.m, an Average [6] of 6433 c.p.m and an Incorporation [7] of 6092 c.p.m.
Work on `CO[C@H]1O[C@H](CO)[C@@H](O[C@H]2O[C@H](CO)[C@@H](O)[C@@H]2O)[C@@H]1O` yielded an Average [8] of 6876 c.p.m, an Incorporation [9] of 6432 c.p.m and an Incorporation [10] of 6563 c.p.m. For the same molecule, the Incorporation [11] was 7632 c.p.m.
For `CO[C@H]1O[C@H](CO[C@H]2O[C@H](CO[C@H]3O[C@H](CO)[C@@H](O)[C@@H]3O)[C@@H](O)[C@@H]2O)[C@@H](O)[C@@H]1O`, the Average [12] was 8338 c.p.m, the Incorporation [13] was 8732 c.p.m and the Incorporation [14] was 7271 c.p.m. It also gave an Incorporation [15] of 9011 c.p.m.
`CO[C@H]1O[C@H](CO[C@H]2O[C@H](CO)[C@@H](O[C@H]3O[C@H](CO)[C@@H](O)[C@@H]3O)[C@@H]2O)[C@@H](O)[C@@H]1O` showed an Average [16] of 5600 c.p.m, an Incorporation [1] of 4960 c.p.m and an Incorporation [17] of 5513 c.p.m. The Incorporation [18] was 6326 c.p.m.
